According to US8445461B2, “Pharmaceutical composition for meniere's disease” (Setsuko Takeda, priority 2007, dated 2013):

Experiments:
[1] = system: guinea pigs excreting normal feces; assay: Antidiarrheal effect: observation of feces after oral administration of saccharides or sugar alcohols with or without polysaccharides (Example 1); format: in vivo; conditions: maltitol 2.8 g/kg oral, alone or with additive; average of 4 animals; score 0 muddy to 4 hard
[2] = system: guinea pigs excreting normal feces; assay: as above; format: in vivo
Procedure: The criteria for analyzing the conditions of feces (hardness, shape and spaces of feces in the intestine) are as shown in Table 2:
The hardness and microscopic findings of feces from the group administered with distilled water were assessed as “Normal” scoring 3, the feces having normal shape and the shape could rather easily change by pushing with fingers were assessed as “Slightly soft” scoring 2, those of which the shape had already changed or it could quite easily change by pushed with fingers were assessed as “Soft” scoring 1, and those of which the shape is muddy or watery or of no shape were assessed “Muddy” scoring 0. To be precese, there are no watery feces because of the nature of diets and thus the muddy feces correspond to watery and muddy feces in human.
Since the muddy feces comprise large content of water, they induce the high abdominal pressure and the flatulence and distension. […] In the case of gas generation, it appears that noxious symptom such as the flatulence and distension are synergistically deteriorated. Therefore, we assessed not only based on the hardness of feces, but also the size, smoothness of the surface and amount of feces.
In these experiments, I observed is the diarrhea caused by saccharides or sugar alcohols and antidiarrhreal effect of saccharides. Guinea pigs orally received saccharides or sugar alcohols, for example tetrose such as erythritol, pentose such as xylitol or xylose, hexose such as isosorbitol or the like in combination with or without polysaccharides for observation of the feces up to 6 hours after the administration.
Guinea pigs (body weight 280 to 320 g, normal feces) were divided into four groups: for Group 1-a, xylitol alone (Reference Example 1), or xylitol and xanthan gum or pectin; for Group 1-b, xylose alone (Reference Example 2), xylose and xanthan gum or pectin; for Group 1-c, erythritol alone (Reference Example 3), erythritol and pectin, erythritol and xanthan gum, or erythritol, pectin and natural aluminum silicate gel or calcium carbonate; and for Group 1-d, isosorbitol alone (Reference Example 4), or isosorbitol and xanthan gum or pectin were orally administered, respectively. The compounds are dissolved in distilled water and 8 ml/kg of said solution were administered as a single dose.
The feces were observed during 6 hours after the administration. When the animals fell into the most serious condition, the hardness and shape of the feces from said animals were assessed as the effect by saccharides or sugar alcohols in the animals.

endolymphatic hydrops = conditions: systemic administration; cited from earlier work
[3] = active agent 2.8 g/kg oral, alone or with additive of the label
[4] = maltitol 2.8 g/kg oral, alone or with additive of the label (Table 6)
[5] = maltitol 2.8 g/kg oral, alone or with additive, average of 4 animals, score 0 muddy to 4 hard

| Hardness of feces (average score), 12 hr after the administration [1] | Hardness of feces (average score), 18 hr after the administration [1] | Hardness of feces (average score), 24 hr after the administration [1] | Abdominal distension / gas by inspections and palpations [2, 3] | Time after administration when diarrhea / softening of feces started [2, 3] [h] | Time after administration when feces recovered to (almost) normal [2, 3] [h] | Hardness of feces: Hard (number of animals) [2, 4] | Hardness of feces: Muddy (number of animals) [2, 4] | Hardness of feces: Normal (number of animals) [2, 4] | Hardness of feces: Slightly soft (number of animals) [2, 4] | Hardness of feces: Soft (number of animals) [2, 4] | Hardness of feces (average score), 1 hr after the administration [2, 5] | Hardness of feces (average score), 2 hr after the administration [2, 5] | Hardness of feces (average score), 3 hr after the administration [2, 5] | Hardness of feces (average score), 4 hr after the administration [2, 5] | Hardness of feces (average score), 5 hr after the administration [2, 5] | Hardness of feces (average score), 6 hr after the administration [2, 5] | Structure (SMILES) | Decompression effect on endolymphatic hydrops (endolymphatic hydrops) | Effect in the normal ear (endolymphatic hydrops) |
| --- | --- | --- | --- | --- | --- | --- | --- | --- | --- | --- | --- | --- | --- | --- | --- | --- | --- | --- | --- |
| 0 | 1.2 | 2.5 | abdominal distension was observed | 3 | ≥ 24 | 0 | 6 | 0 | 0 | 0 | 3 | 2.3 | 1.7 | 0.2 | 0 | 0 | OC[C@@H](O)[C@@H](O[C@H]1O[C@H](CO)[C@@H](O)[C@H](O)[C@H]1O)[C@H](O)[C@@H](O)CO [Maltitol, maltitol] |  |  |
|  |  |  |  |  |  |  |  |  |  |  |  |  |  |  |  |  | Cc1ccccc1C(=O)Nc1ccc(C(=O)N2CCCC(N(C)C)c3ccccc32)cc1 (stereo not shown) [OPC 31260] | did not reveal the decompression effect | formation of endolymphatic hydrops in the normal ear |
